In one assay the test system is KMS.12.BM cells. Description: KMS.12.BM cell viability assay (Cell Titer-GLO, ATP quantitation). The settings on record: Homo sapiens, 72 h, 3 days, concentration required for 50% cell death, read-out: KMS cellular IC50. It counts as cell-based. The protocol: KMS.12.BM cell line (human myeloma) was purchased from JCRB (Osaka, Japan) and maintained in RPMI with 10% FBS culture medium. To measure the cytotoxic activity of the compounds through ATP quantitation, the KMS.12.BM cells are plated in the RPMI culture medium at 5000 cells/well/per 100 μL into a 96-well polystyrene clear black tissue culture plate (Greiner-bio-one through VWR, NJ), in the presence or absence of a concentration range of test compounds. After 3 days, […] Cell Titer-GLO Luminescent (Promega, Madison, Wis.) cell culture agent is added to each well for 10 minutes at room temperature to stabilize the luminescent signal. This determines the number of viable cells in culture based on quantitation of the ATP present, which signals the presence of metabolically active cells. Luminescence is measured with the Top Count 384 (Packard Bioscience through Perkin Elmer, Boston, Mass.). Compound inhibition is determined relative to cells cultured with no drug and the IC50 is reported as the compound concentration required for 50% cell death. IC50 data for the Examples is presented in Table 9 as determined by Assay B1.
For orientation: ATP-based viability assays read luminescence as a measure of living cells.

The next assay has as its target BRD4-BD1 (Homo sapiens (Human), UniProt O60885). Nature of the assay: BRD4 AlphaScreen assay, BRD4-BD1. It counts as binding. The settings on record: H4Ac4 peptide, 75 min, room temperature, read-out: BRD4 BD-1 enzyme IC50. The protocol: (§1) BRD4-BD1 and BRD4-BD2 assays were conducted in white 384-well polystyrene plate in a final volume of 20 μL for BD1 and 40 μL for BD2. Inhibitors were first serially diluted in DMSO and added to the plate wells before the addition of other reaction components. […] After plate sealing, the plate was incubated in the dark at room temperature for 75 min. before reading on a PHERAstar FS plate reader (BMG Labtech). IC50 determination was performed by fitting the curve of percent control activity versus the log of the inhibitor concentration using the GraphPad Prism 5.0 software.

The target in the next assay is BRD4-BD2 (Homo sapiens (Human), UniProt O60885). Description: BRD4 AlphaScreen assay, BRD4-BD2. It counts as binding. The following applies: H4Ac4 peptide, 75 min, room temperature, read-out: BRD4 BD-2 enzyme IC50. Here is the method: as §1
The subject of the next assay is C-myc. Description: KMS.12.BM C-myc ELISA assay. The settings on record: Homo sapiens; KMS.12.BM cells, 2 hours, concentration required for 50% C-myc inhibition. It counts as cell-based. Here is the method:
KMS.12.BM cell line (human myeloma) was purchased from JCRB (Osaka, Japan) and maintained in RPMI with 10% FBS culture medium. To measure the C-myc inhibitory activity of the compounds, the KMS.12.BM cells are plated in the RPMI culture medium at 75000 cells/well/per 200 μL into a 96-well flat bottom polystyrene tissue culture plate (Corning through VWR, NJ), in the presence or absence of a concentration range of test compounds. After 2 hours, cell are pelleted and lysed with Cell Extraction Buffer (BioSource, Carlsbad, Calif.) in the presence of protease inhibitors (Life Technologies, Grand Island, N.Y. and Sigma, St Louis, Mo.). Clarified lyses are tested in a C-myc commercial ELISA (Life Technologies, Grand Island, N.Y.). Compound inhibition is determined relative to cells cultured with no drug and the IC50 is reported as the compound concentration required for 50% C-myc inhibition. IC50 data for the Examples is presented in Table 10 as determined by Assay C1.
Background: ELISA stands for enzyme-linked immunosorbent assay.

Among the data in patent publication US9918990B2, “Substituted pyrrolo[2,3-c]pyridines and pyrazolo[3,4-c]pyridines as BET protein inhibitors” (Incyte Corporation, priority 2013, dated 2018) are IC50 values, retold here.

The IC50 is the concentration that gives 50% inhibition. In the case of `Cn1cc(-c2ccc3[nH]cnc3c2OCC2CC2)c2cc[nH]c2c1=O` [Example 12, 4-[4-(Cyclopropylmethoxy)-1H-benzimidazol-5-yl]-6-methyl-1,6-dihydro-7H-pyrrolo[2,3-c]pyridin-7-one], the IC50 is no more than 1000 nM in the assay on KMS.12.BM cells, less than 100 nM at BRD4-BD1, less than 100 nM at BRD4-BD2 and no more than 1000 nM in the assay on C-myc.

As to `Cc1nc2c(OCC3CC3)c(-c3cn(C)c(=O)c4[nH]ccc34)ccc2[nH]1` [Example 13, 4-[4-(Cyclopropylmethoxy)-2-methyl-1H-benzimidazol-5-yl]-6-methyl-1,6-dihydro-7H-pyrrolo[2,3-c]pyridin-7-one], the IC50 with KMS.12.BM cells was no more than 1000 nM; at BRD4-BD1, less than 100 nM; at BRD4-BD2 it was less than 100 nM; in the assay on C-myc it was no more than 1000 nM.

`Cn1cc(-c2ccc3[nH]cnc3c2Oc2ccc(F)cc2F)c2cn[nH]c2c1=O` [Example 14, 4-[4-(2,4-Difluorophenoxy)-1H-benzimidazol-5-yl]-6-methyl-1,6-dihydro-7H-pyrazolo[3,4-c]pyridin-7-one]: the IC50 in the assay on KMS.12.BM cells is no more than 1000 nM; at BRD4-BD1, less than 100 nM; on BRD4-BD2, less than 100 nM; in the assay with C-myc, no more than 1000 nM.

`Cc1nc2c(Oc3ccc(F)cc3F)c(-c3cn(C)c(=O)c4[nH]ncc34)ccc2[nH]1` [Example 15, 4-[4-(2,4-Difluorophenoxy)-2-methyl-1H-benzimidazol-5-yl]-6-methyl-1,6-dihydro-7H-pyrazolo[3,4-c]pyridin-7-one]: the IC50 was no more than 1000 nM in the assay with KMS.12.BM cells, less than 100 nM on BRD4-BD1, less than 100 nM on BRD4-BD2 and no more than 1000 nM with C-myc.

Consider `Cn1cc(-c2ccc3[nH]c(=O)[nH]c3c2Oc2ccc(F)cc2F)c2cn[nH]c2c1=O` [Example 16, 4-[4-(2,4-Difluorophenoxy)-2-oxo-2,3-dihydro-1H-benzimidazol-5-yl]-6-methyl-1,6-dihydro-7H-pyrazolo[3,4-c]pyridin-7-one], for which the half-inhibitory concentration (IC50) with KMS.12.BM cells was no more than 1000 nM; at BRD4-BD1, less than 100 nM; on BRD4-BD2 it was less than 100 nM; in the assay on C-myc it was no more than 1000 nM.

In the case of `Cn1cc(-c2ccc3c(ncn3CCN3CCOCC3)c2Oc2ccc(F)cc2F)c2cn[nH]c2c1=O` [Example 17, 4-[4-(2,4-Difluorophenoxy)-1-(2-morpholin-4-ylethyl)-1H-benzimidazol-5-yl]-6-methyl-1,6-dihydro-7H-pyrazolo[3,4-c]pyridin-7-one], the IC50 is no more than 1000 nM in the assay with KMS.12.BM cells, less than 100 nM at BRD4-BD1, less than 100 nM on BRD4-BD2 and no more than 1000 nM in the assay on C-myc.

Turning to `Cn1cc(-c2ccc3c(ncn3C)c2Oc2ccc(F)cc2F)c2cn[nH]c2c1=O` [Example 18, 4-[4-(2,4-Difluorophenoxy)-1-methyl-1H-benzimidazol-5-yl]-6-methyl-1,6-dihydro-7H-pyrazolo[3,4-c]pyridin-7-one], the IC50 in the assay on KMS.12.BM cells is no more than 1000 nM; on BRD4-BD1, less than 100 nM; at BRD4-BD2 it was less than 100 nM; in the assay on C-myc it was no more than 1000 nM.

For the molecule `Cc1nc2c(Oc3ccc(F)cc3F)c(-c3cn(C)c(=O)c4[nH]ncc34)ccc2n1C` [Example 19, 4-[4-(2,4-Difluorophenoxy)-1,2-dimethyl-1H-benzimidazol-5-yl]-6-methyl-1,6-dihydro-7H-pyrazolo[3,4-c]pyridin-7-one], the IC50 in the assay with KMS.12.BM cells is no more than 1000 nM; at BRD4-BD1, less than 100 nM; on BRD4-BD2, less than 100 nM; with C-myc, no more than 1000 nM.

As to `Cn1cc(-c2ccc3c(nnn3C)c2Oc2ccc(F)cc2F)c2cn[nH]c2c1=O` [Example 20, 4-[4-(2,4-Difluorophenoxy)-1-methyl-1H-1,2,3-benzotriazol-5-yl]-6-methyl-1,6-dihydro-7H-pyrazolo[3,4-c]pyridin-7-one], the IC50 with KMS.12.BM cells is no more than 1000 nM; at BRD4-BD1 it was less than 100 nM; on BRD4-BD2, less than 100 nM; in the assay on C-myc it was no more than 1000 nM.

`Cn1cc(-c2ccc3c([nH]c(=O)n3C)c2Oc2ccc(F)cc2F)c2cn[nH]c2c1=O` [Example 21, 4-[4-(2,4-Difluorophenoxy)-1-methyl-2-oxo-2,3-dihydro-1H-benzimidazol-5-yl]-6-methyl-1,6-dihydro-7H-pyrazolo[3,4-c]pyridin-7-one]: the IC50 in the assay on KMS.12.BM cells is no more than 1000 nM; at BRD4-BD1 it was less than 100 nM; at BRD4-BD2 it was less than 100 nM; with C-myc, no more than 1000 nM.

On to `Cn1cc(-c2ccc3[nH]c(=O)[nH]c3c2Oc2ccccc2)c2cc[nH]c2c1=O` [Example 22, 5-(6-Methyl-7-oxo-6,7-dihydro-1H-pyrrolo[2,3-c]pyridin-4-yl)-4-phenoxy-1,3-dihydro-2H-benzimidazol-2-one], for which the IC50 with KMS.12.BM cells was no more than 1000 nM; at BRD4-BD1 it was less than 100 nM; at BRD4-BD2, less than 100 nM; in the assay on C-myc it was no more than 1000 nM.

Regarding `Cn1cc(-c2ccc3[nH]c(=O)[nH]c3c2Oc2ccc(F)cc2)c2cc[nH]c2c1=O` [Example 24, 4-(4-Fluorophenoxy)-5-(6-methyl-7-oxo-6,7-dihydro-1H-pyrrolo[2,3-c]pyridin-4-yl)-1,3-dihydro-2H-benzimidazol-2-one], the IC50 is no more than 1000 nM with KMS.12.BM cells, less than 100 nM on BRD4-BD1, less than 100 nM at BRD4-BD2 and no more than 1000 nM in the assay on C-myc.

As to `Cn1cc(-c2ccc3[nH]c(=O)[nH]c3c2Oc2cccc(F)c2)c2cc[nH]c2c1=O` [Example 25, 4-(3-Fluorophenoxy)-5-(6-methyl-7-oxo-6,7-dihydro-1H-pyrrolo[2,3-c]pyridin-4-yl)-1,3-dihydro-2H-benzimidazol-2-one], the IC50 with KMS.12.BM cells is no more than 1000 nM; on BRD4-BD1, less than 100 nM; on BRD4-BD2 it was less than 100 nM; in the assay with C-myc, no more than 1000 nM.

Turning to `Cn1cc(-c2ccc3[nH]c(=O)[nH]c3c2OC2CCCOC2)c2cc[nH]c2c1=O` (stereo not drawn) [Example 26, 5-(6-Methyl-7-oxo-6,7-dihydro-1H-pyrrolo[2,3-c]pyridin-4-yl)-4-(tetrahydro-2H-pyran-3-yloxy)-1,3-dihydro-2H-benzimidazol-2-one], the IC50 in the assay on KMS.12.BM cells is no more than 1000 nM; on BRD4-BD1 it was less than 100 nM; at BRD4-BD2, less than 100 nM; with C-myc it was no more than 1000 nM.

Turning to `Cn1cc(-c2ccc3c([nH]c(=O)n3C)c2OCc2ccccc2)c2cc[nH]c2c1=O` [Example 27, 4-(Benzyloxy)-1-methyl-5-(6-methyl-7-oxo-6,7-dihydro-1H-pyrrolo[2,3-c]pyridin-4-yl)-1,3-dihydro-2H-benzimidazol-2-one], the IC50 with KMS.12.BM cells is no more than 1000 nM; at BRD4-BD1 it was 100 to 1000 nM; at BRD4-BD2, less than 100 nM; with C-myc it was no more than 1000 nM.

With `Cn1cc(-c2ccc3c([nH]c(=O)n3C)c2OCc2ccc(F)cc2F)c2cc[nH]c2c1=O` [Example 28, 4-[(2,4-Difluorobenzyl)oxy]-1-methyl-5-(6-methyl-7-oxo-6,7-dihydro-1H-pyrrolo[2,3-c]pyridin-4-yl)-1,3-dihydro-2H-benzimidazol-2-one], the IC50 is no more than 1000 nM in the assay on KMS.12.BM cells, 100 to 1000 nM at BRD4-BD1, less than 100 nM on BRD4-BD2 and 1000 to 10000 nM in the assay with C-myc.

`Cn1cc(-c2ccc3c([nH]c(=O)n3C)c2OC2CCOCC2)c2cc[nH]c2c1=O` [Example 29, 1-Methyl-5-(6-methyl-7-oxo-6,7-dihydro-1H-pyrrolo[2,3-c]pyridin-4-yl)-4-(tetrahydro-2H-pyran-4-yloxy)-1,3-dihydro-2H-benzimidazol-2-one]: the IC50 in the assay with KMS.12.BM cells is no more than 1000 nM; on BRD4-BD1 it was less than 100 nM; at BRD4-BD2, less than 100 nM; with C-myc, no more than 1000 nM.

`Cn1cc(-c2ccc3ncn(CC(=O)N4CCOCC4)c3c2Oc2ccc(F)cc2F)c2cc[nH]c2c1=O` [Example 30, 4-[7-(2,4-Difluorophenoxy)-1-(2-morpholin-4-yl-2-oxoethyl)-1H-benzimidazol-6-yl]-6-methyl-1,6-dihydro-7H-pyrrolo[2,3-c]pyridin-7-one]: the IC50 in the assay with KMS.12.BM cells was no more than 1000 nM; on BRD4-BD1, less than 100 nM; at BRD4-BD2, less than 100 nM; with C-myc it was no more than 1000 nM.
